How the values were obtained:
[1] = target: T1, MR1 (Homo sapiens, UniProt Q95460); assay: Refolding of denatured MR1 and β2m with ligands; format: binding; conditions: substance added to MR1/β2m refold
T1 construct: soluble human MR1 (residues 1-270 of the mature, leaderless protein); made in house
Experimental: Genes encoding soluble human MR1 (residues 1-270 of the mature, leaderless protein, lacking the transmembrane and cytoplasmic domains); or human β2m (mature, leaderless protein) were expressed for four hours in BL21 E. coli following induction with 1 mM isopropyl β-D-1-thiogalactopyranoside. E. coli were pelleted and resuspended in a buffer containing 50 mM Tris, 25% (w/v) sucrose, 1 mM EDTA, 10 mM DTT pH 8.0. Inclusion body protein was then extracted by lysis of bacteria in a buffer containing 50 mM Tris pH 8.0, 1% (w/v) Triton X-100, 1% (w/v) sodium deoxycholate, 100 mM NaCl, 10 mM DTT, 5 mM MgCl2, and 1 mg DnaseI per liter of starting culture; and subsequent steps involved homogenization with a polytron homogenizer, centrifugation, and washing inclusion body protein sequentially with firstly a buffer containing 50 mM Tris pH 8, […], 100 mM NaCl, 1 mM EDTA, 1 mM DTT, and secondly a buffer containing 50 mM Tris pH 8.0, 1 mM EDTA, 1 mM DTT. Inclusion body protein was then resuspended in a buffer containing 20 mM Tris pH 8.0, 8 M urea, 0.5 mM EDTA, 1 mM DTT, and following centrifugation the supernatant containing solubilized, denatured inclusion body protein was collected and stored at −80° C.
2 mg of 6-formyl pterin, 56 mg of denatured inclusion body MR1 protein, and 28 mg of β2m protein were added to a 400 ml refold buffer solution containing 0.1 M Tris pH 8.5, 2 mM EDTA, 0.4 M arginine, 0.5 mM oxidized glutathione, 5 mM reduced glutathione. Variably, 5M urea was either present or absent. Following an overnight incubation at 4° C., the refold buffer was dialysed against 3 changes of buffer containing 10 mM Tris, pH8.0 over a period of 24 hours. Refolded MR1-β2m-ligand complex was then purified by sequential DEAE (GE Healthcare) anion exchange, S75 16/60 (GE Healthcare) gel filtration, and MonoQ (GE Healthcare) anion exchange chromatography.

[2] = system: Jurkat.MAIT cells; assay: Activation of Jurkat.MAIT cells (CD69) with C1R antigen presenting cells expressing MR1; format: cell-based, human
Experimental: Jurkat cells transduced with a MAIT TCR comprising the TRAV1-2+TRAJ33 invariant α chain, and a TRBV6-1 β chain were tested for activation by addition of Salmonella supernatant to C1R antigen presenting cells expressing MR1 for 16 hours. Jurkat.MAIT cells were subsequently stained with PE-conjugated anti-CD3, and APC-conjugated anti-CD69 antibodies before analysis by flow cytometry. Activation of Jurkat.MAIT cells was measured by an increase in surface CD69 expression. Compounds to be tested for the ability to activate Jurkat.MAIT cells were tested alongside Salmonella supernatant.
A biological assay for the activation of MAIT T cell receptor (TCR)-expressing T cell lines (into which genes encoding the MAIT TCR alpha and beta chains had been introduced), by antigen presenting cells (expressing MR1 on the cell surface) infected with the bacterium Salmonella typhimurium has been established. This assay measures the increase in expression of the cell surface activation marker, CD69, upon activation of MAIT T cells.

[3] = system: Jurkat.LC13 line; assay: Activation of control Jurkat.LC13 line in the presence of C1R.HLA-B8 cells; format: cell-based, human
Description: Next, to formally establish whether 7-hydroxy-6-methyl-8-ribityl lumazine and/or its precursor, 6,7-dimethyl-8-ribityl lumazine, could activate MAIT cells, both compounds were chemically synthesized their ability to enable MR1 refolding and to activate Jurkat.MAIT cells and human MAIT cells from peripheral blood tested. […] Thus, direct precursors of riboflavin biosynthesis activate MAIT cells.

[4] = system: human MAIT cells from peripheral blood; assay: Activation of primary MAIT cells from PBMCs (CD69, IFN-γ, TNF-α); format: cell-based; conditions: PBMCs with C1R cells expressing MR1
Experimental: PBMCs from a healthy donor were mixed with C1R-huMR1 cells (10^5 each/well). Salmonella SL1344 supernatant (2 μl) from cultures grown in LB supplemented with 25 μg/ml streptomycin (Sigma) for 4 hr at 37° C., or compounds (35A, 36A, 48G: 25 μg/ml final, A-6FP: 10 μM final) or PMA (2 ng/ml+ionomycin (1 ng/ml) added in a total volume of 220 μl RF-10, and incubated overnight at 37° C. Cells were stained with anti-CD3-PE-Cy7 (eBioscience, 20 μg/ml), anti-CD4-APC-Cy7 (Biolegend, 1.7 μg/ml), anti-CD161-APC (Miltenyi Biotec, 1:50), FITC-conjugated D5 (anti-MAIT TCR, 10 μg/ml) and either anti-CD69-PE (BD Biosciences 1:50), anti-IFNγ-PE (BD Pharmingen 10 μg/ml) or anti-TNFα-PE (BD Pharmingen 10 μg/ml), and analyzed by flow cytometry using a Canto II cytometer and Diva software. For intracellular cytokine staining, brefeldin A (10 μg/ml) was added to the assay after the first 1 hr and the incubation allowed to proceed overnight. Cells were fixed with 1% parformaldehyde after staining for surface markers and permeabilised with 1% saponin during cytokine stains. MAIT cells were defined as CD3^+, CD4^−, CD161^+, D5^+ after gating on PBMCs using FSC and SSC.
PBMCs from a healthy donor were mixed with C1R cells expressing MR1 (10^5 each/well). Salmonella SL1344 supernatant (2 μl) from cultures grown in LB supplemented with 25 μg/ml streptomycin (Sigma) for 4 hr at 37° C., or compounds (RL-6,7-diMe, RL-6-Me-7-OH, 6FP: 76.2 μM final, rRL-6-HM: 0.152 μM final) or PMA (2 ng/ml+ionomycin (1 ng/ml) added in a total volume of 220 μl RF-10, and incubated overnight at 37° C. Cells were stained with anti-CD3-PE-Cy7 (eBioscience, 20 μg/ml), anti-CD4-APC-Cy7 (Biolegend, 1.7 μg/ml), anti-CD161-APC (Miltenyi Biotec, 1:50), FITC-conjugated D5 (anti-MAIT TCR, 10 μg/ml) and either anti-CD69-PE (BD Biosciences 1:50), anti-IFNγ-PE (BD Pharmingen 10 μg/ml) or anti-TNFα-PE (BD Pharmingen 10 μg/ml), and analyzed by flow cytometry using a Canto II cytometer and Diva software. […] CD69 expression was analysed by flow cytometry. […]

[5] = system: Jurkat cells expressing a conventional T cell receptor; assay: Control: inhibition of activation of Jurkat cells expressing a conventional T cell receptor by viral peptide-classical class I complexes; format: cell-based, human; conditions: antigen presenting cells displaying viral peptide-classical class I complexes
Description: Thus, 6-formyl pterin has been identified as a potential antagonist compound, capable of blocking activation of MAIT cells by bacterial activating ligands.

[6] = system: MAIT TCR-BW hybridomas; assay: MR1 tetramer staining of MAIT TCR-BW hybridomas; format: cell-based; conditions: hybridomas from mouse Vα19iTG splenocytes fused with BW cell line
Description: (§1) Wild-type human MR1 containing a C-terminal cysteine can be refolded with the addition of 5-amino-6-D-ribitylamino-uracil and pyruvaldehyde, using the standard refolding conditions described above, and then purified using the standard methods also described above. MR1 refolded in this way has rRL-6-CH2OH bound as determined by X-ray crystallography structural studies, and by electrospray ionization time-of-flight (ESI TOF) mass spectrometry. […] Excess biotin is removed by passing biotinylated protein through an S200 10/300 GL (Healthcare) gel filtration column in Tris buffered saline (pH 8.0), prior to formation of tetramers by addition to PE Streptavidin (#554061, BD Pharmingen). […] In the same manner human MR1 containing a C-terminal cysteine can be refolded with the addition of 5-amino-6-D-ribitylamino-uracil, and subsequently purified by fast protein liquid chromatography (FPLC) to yield MR1 refolded with a novel ribityllumazine metabolite, reduced 7-hydroxy-ribityllumazine (rRL-7-OH). The identity of rRL-7-OH bound to MR1 was confirmed by ESI TOF mass spectrometry, and by determining its structure using X-ray crystallography. The identity of rRL-7-OH bound to MR1 was also confirmed by refolding wild-type MR1 with 5-amino-6-D-ribitylamino-uracil and ^13C-glycolaldehyde to yield MR1-^13C-rRL-7-OH.

[7] = system: control BW cells; assay: MR1 tetramer staining of control BW cells; format: cell-based, mouse
Description: as §1

T1 sequence (Q95460 23-292): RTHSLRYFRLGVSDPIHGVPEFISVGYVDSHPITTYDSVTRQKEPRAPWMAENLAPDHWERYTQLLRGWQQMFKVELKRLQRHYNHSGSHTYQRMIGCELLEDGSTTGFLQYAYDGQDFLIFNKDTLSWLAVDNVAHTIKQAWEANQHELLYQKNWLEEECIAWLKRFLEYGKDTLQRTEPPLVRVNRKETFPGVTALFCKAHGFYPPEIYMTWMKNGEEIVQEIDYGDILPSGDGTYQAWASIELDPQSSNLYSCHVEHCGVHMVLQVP
T1 sequence (P61769 21-119 partner): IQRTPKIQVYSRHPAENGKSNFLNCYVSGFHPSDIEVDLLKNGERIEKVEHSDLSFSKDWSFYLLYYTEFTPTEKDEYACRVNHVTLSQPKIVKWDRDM

Cc1nc2c(=O)[nH]c(=O)nc-2n(C[C@H](O)[C@H](O)[C@H](O)CO)c1O [Compound 2, 7-hydroxy-6-methyl-8-D-ribityllumazine]
Ability to refold MR1 into native MR1-β2m complex [1]: could be refolded with MR1
Activation of Jurkat.MAIT cells (increase in surface CD69) [2]: activated
Activation of control Jurkat.LC13 line [3]: failed to activate
Activation of MAIT cells (CD69 upregulation, intracellular IFN-γ and TNF-α) [4]: specifically activated

Nc1nc2ncc(C=O)nc2c(=O)[nH]1 [Compound 6-FP, 6-formyl pterin, reference compound]
Ability to refold MR1 into native MR1-β2m complex [1]: indistinguishable from MR1 refolded with folic acid
Activation of Jurkat.MAIT cells (increase in surface CD69) [2]: did not activate
Inhibitory effect on activation of Jurkat cells expressing a conventional T cell receptor [5]: no inhibitory effect
Activation of MAIT cells (CD69 upregulation, intracellular IFN-γ and TNF-α) [4]: did not activate

B1: mouse MR1-rRL-6-CH2OH tetramers: tetramers from mouse wild-type MR1-rRL-6-CH2OH (C-terminal cysteine) (protein, UniProt Q8HWB0 19-341; P01887 21-119, looked up)
Major histocompatibility …: RTHSLRYFRLAVSDPGPVVPEFISVGYVDSHPITTYDSVTRQKEPKAPWMAENLAPDHWERYTQLLRGWQQTFKAELRHLQRHYNHSGLHTYQRMIGCELLEDGSTTGFLQYAYDGQDFIIFNKDTLSWLAMDYVAHITKQAWEANLHELQYQKNWLEEECIAWLKRFLEYGRDTLERTEHPVVRTTRKETFPGITTFFCRAHGFYPPEISMTWMKNGEEIAQEVDYGGVLPSGDGTYQTWLSVNLDPQSNDVYSCHVEHCGRQMVLEAPRESGDILRVSTISGTTILIIALAGVGVLIWRRSQELKEVMYQPTQVNEGSSPS
Beta-2-microglobulin: IQKTPQIQVYSRHPPENGKPNILNCYVTQFHPPHIEIQMLKNGKKIPKVEMSDMSFSKDWSFYILAHTEFTPTETDTYACRVKHASMAEPKTVYWDRDM
modifications: rRL-6-CH2OH ligand; C-terminal cysteine; tetramer
Tetramer staining of MAIT TCR-BW hybridomas [6]: stain
Tetramer staining of control BW cells [7]: not

Source: US10011602B2, “Immunological reagents and uses therefor” (THE UNIVERSITY OF MELBOURNE, priority 2012, dated 2018)
